The subject of data set [1] is Angiotensin II (AII)-induced vasopressor action. Kind of data set: Inhibitory effect on angiotensin II (AII)-induced vasopressor action in rat. It is filed as in vivo. The following applies: male SD rats, AII 100 ng/kg i.v., p.o., mean±SEM. On the procedure:
11-Week-old male SD rats (JCL: SD, CLEA Japan, Inc.) were anesthetized with pentobarbital (50 mg/kg, i.p.), the femoral artery and femoral vein were isolated, and a polyethylene tube filled with physiological saline containing heparin (200 U/mL) was placed therein. The catheter was subcutaneously fixed in the back of the neck. After recovery period, the rats were subjected to the test.
The arterial catheter was connected to a pressure transducer (2238, NEC San-ei Instruments) and the signals were output on a pen recorder (RECTI-HORIZ 8K, NEC San-ei Instruments) via an amplifier for blood pressure. After the vasopressor action of AII (100 ng/kg, i.v.) was stabilized, a test compound in an equimolar dose to compound A was administered. After 24 hrs, AII was administered, an increase in the blood pressure was measured, and an inhibition rate relative to the value before drug administration was calculated. All compounds were suspended in 0.5% methylcellulose and orally administered at a volume of 2 mL/kg.
The results are shown as mean±SEM (Table 6). The significance between the compound (I) administration group and other compound administration group was determined by the Student's t test (**: p<0.01, *: p<0.05).

Another data set relates to insulin sensitivity. Kind of data set: Enhancing effect on insulin sensitivity in rat (glucose clamp technique). It counts as in vivo. To be noted: spontaneously hypertensive rats, p.o. for 2 weeks, average glucose injection rate 50-90 min, mean±SEM. On the procedure: 24-Week-old male spontaneously hypertensive rats (SLC: SHR/Izm, Japan SLC, Inc.) were used. The body weight, systolic blood pressure, fasting blood glucose level, plasma insulin level and plasma triglyceride level of the rats were measured, and the rats were divided into a vehicle (0.5% methylcellulose solution) administration group and compound (I) (0.12, 0.37 and 1.23 mg/kg) administration groups using them as indices. Compound (I) was suspended in 0.5% methylcellulose solution and orally administered at a volume of 2 mL/kg for 2 weeks.
The insulin sensitivity was evaluated by the glucose clamp technique. To be specific, the rats after fasting overnight were anesthetized with pentobarbital sodium (Nembutal injection, Dainippon Pharmaceutical Co. Ltd., 50 mg/kg i.p.), and catheters (SP45, Natume Seisakusho Co., Ltd.) for blood sampling, insulin (novolin R/100, Novo Nordisk Pharma Co., Ltd.) infusion and glucose (Otsuka Glucose Injection 50%, Otsuka Pharmaceutical Co., Ltd.) infusion were each placed in the right common carotid artery, left femoral vein and right femoral vein. After single intravenous injection of 25 mU/kg of insulin, high insulin state was maintained by infusion using an infusion pump (KDS100, KDS) at an injection rate of 4 mU/kg/min. In addition, glucose in an amount necessary for maintaining the normal blood glucose level was intravenously infused using a different infusion pump (KDS100, KDS). Intravenous injection of glucose was started from 10 min after the start of the injection of insulin, and the glucose injection rate was changed after blood glucose measurement performed every 5 min. The blood glucose level then was quickly measured using a simple blood glucose measurement apparatus (ACCU-CHEK Comfort, Roche diagnostics). Glucose was infused for 90 min., the average value of the glucose injection rate was calculated for 40 min (from 50 min. to 90 min. after the start of the injection) and used as an index (M value) of insulin sensitivity.
The results are shown as mean±SEM (Table 7). […]

Data set [2] can be described thus: Membrane permeability by Parallel Artificial Membrane Permeability Assay (PAMPA). The following applies: for Papp at 3 h, 50 gmol/L: PAMPA; for permeability in comparison with compound X: in words. It is filed as in vitro ADME. On the procedure: The permeability with the artificial membrane was determined by PAMPA under the following conditions. • lipid membrane: GIT mode (pION) • measurement wavelength: 250-400 nm • incubation time: 3 hrs • incubation temperature: 25° C. • Donor: […] 50 gmol/L
In general terms: PAMPA measures passive passage across an artificial lipid membrane.

Data set [3] in a line: Solubility in JP1, JP2 and GCDC/JP2. The following applies: for solubility in comparison with compound X: in words; for solubility at 2 h: thermodynamic from solid, 37° C. It counts as physicochemical. On the procedure:
About 2 mg of samples were suspended in 2 mL of JP1, JP2 and 20 mmol/L GCDC/JP2. The suspension was equilibrated at 37° C. for 2 hrs and filtered. The concentration in the solutions was determined by HPLC under the following conditions.
• Detector: UV 254 nm • Column: CAPCELLPAK C18 MG 75×4.6 mm • Mobile Phase A: 0.05 mol/L ammonium formate buffer (pH 3)/MeCN=9:1 • Mobile Phase B: 0.05 mol/L ammonium formate buffer (pH 3)/MeCN=1:9 • Gradient Program: 0→10 min 0→100% B) • 10→15 min 100% B) • 15.1→20 min 0% B) • Column Temp.: 40° C. • Flow Rate: 1 mL/min • Injection vol.: 10 gL

Data set [4] in a line: Heat stability of Form A crystal. To be noted: in words. It counts as physicochemical.
Where [5] appears, read: pH 5.5, GIT mode lipid membrane, 3 hrs, 25° C., read-out: PAMPA pH 5.5.
[6] abbreviates: pH 6.2, GIT mode lipid membrane, 3 hrs, 25° C., read-out: PAMPA PH 6.2.
The mark [7] stands for this setting: pH 1.2, simulated gastric fluid, JP1, read-out: Solubility JP1.
The mark [8] stands for this setting: pH 6.8, fassgf or other biorelevant, 20 mmol/L GCDC/JP2, read-out: Solubility GCDC/JP2.
[9] abbreviates: pH 6.8, fassgf or other biorelevant, JP2, read-out: Solubility JP2.
The mark [10] stands for this setting: pH 7.4, GIT mode lipid membrane, 3 hrs, 25° C., read-out: PAMPA PH 7.4.

Values after ≈ are worked out from the molar mass of the structure shown. Like-named read-outs stand apart in the source and are kept apart here.

Take `Cc1oc(=O)oc1COC(=O)c1cccc2nc(C3CC3)n(Cc3ccc(-c4ccccc4-c4noc(=O)[nH]4)cc3)c12` [Compound (I), (5-Methyl-2-oxo-1,3-dioxol-4-yl)methyl 2-cyclopropyl-1-{[2′-(5-oxo-4,5-dihydro-1,2,4-oxadiazol-3-yl)biphenyl-4-yl]methyl}-1H-benzimidazole-7-carboxylate]: the “suppression rate at 24 hrs after administration” value (“suppression rate at 24 hrs” for short) in data set [1] (0.12 mg/kg) came to 20.2%. Further, the M value is recorded as 8.2 in the data set on insulin sensitivity (0.12 mg/kg), 9.0 in the data set with insulin sensitivity (0.37 mg/kg) and 9.8 in the data set with insulin sensitivity (1.23 mg/kg).
As for `O=C(O)c1cccc2nc(C3CC3)n(Cc3ccc(-c4ccccc4-c4noc(=O)[nH]4)cc3)c12` [Compound A, 2-cyclopropyl-1-{[2′-(5-oxo-4,5-dihydro-1,2,4-oxadiazol-3-yl)biphenyl-4-yl]methyl}-1H-benzimidazole-7-carboxylic acid], in data set [1] (0.10 mg/kg), the “suppression rate at 24 hrs” value was −6.0%. In addition, the Papp at 3 h, 50 gmol/L was determined as 13 ×10⁻⁶ cm/s in data set [2] (setting [5]) and 0.63 ×10⁻⁶ cm/s in data set [2] (setting [6]). In addition, the “permeability in comparison with compound X” value in data set [2] is recorded as “less permeable”. Besides, the “PAMPA PH 7.4” value in data set [2] (pH 7.4, GIT mode lipid membrane, 3 hrs, 25° C.) stood at 0 ×10⁻⁶ cm/s. In addition, the “solubility in comparison with compound X” value in data set [3] was “soluble”. Moreover, the results for the solubility at 2 h in data set [3] (setting [7]), in data set [3] (setting [8]) and in data set [3] (setting [9]) were 130 µg/mL (≈ 287 µM), 680 µg/mL (≈ 1500 µM) and 470 µg/mL (≈ 1040 µM), respectively.
In the case of `COC(=O)c1cccc2nc(C3CC3)n(Cc3ccc(-c4ccccc4-c4noc(=O)[nH]4)cc3)c12` [Compound B, methyl 2-cyclopropyl-1-{[2′-(5-oxo-4,5-dihydro-1,2,4-oxadiazol-3-yl)biphenyl-4-yl]methyl}-1H-benzimidazole-7-carboxylate], the “suppression rate at 24 hrs” value in data set [1] (0.10 mg/kg) is 2.6%. Moreover, the Papp at 3 h, 50 gmol/L is 46 ×10⁻⁶ cm/s in data set [2] (setting [5]), 20 ×10⁻⁶ cm/s in data set [2] (setting [6]) and 8.9 ×10⁻⁶ cm/s in data set [2] (setting [10]). For the same compound, the “permeability in comparison with compound X” value in data set [2] is “permeable”. The “solubility in comparison with compound X” value in data set [3] is reported as “less soluble”. In addition, the solubility at 2 h is 160 µg/mL (≈ 343 µM) in data set [3] (setting [7]), 27 µg/mL (≈ 57.9 µM) in data set [3] (setting [8]) and 2.8 µg/mL (≈ 6 µM) in data set [3] (setting [9]).
As to `Cc1oc(=O)oc1COC(=O)c1cccc2nc(C3CC3)n(Cc3ccc(-c4ccccc4-c4noc(=O)[nH]4)cc3)c12` [Compound X, crystal of (5-methyl-2-oxo-1,3-dioxol-4-yl)methyl 2-cyclopropyl-1-{[2′-(5-oxo-4,5-dihydro-1,2,4-oxadiazol-3-yl)biphenyl-4-yl]methyl}-1H-benzimidazole-7-carboxylate], the results for the Papp at 3 h, 50 gmol/L in data set [2] (setting [5]), in data set [2] (setting [6]) and in data set [2] (setting [10]) were 21 ×10⁻⁶ cm/s, 19 ×10⁻⁶ cm/s and 9.5 ×10⁻⁶ cm/s, respectively. The results for the solubility at 2 h in data set [3] (setting [7]), in data set [3] (setting [8]) and in data set [3] (setting [9]) were 27 µg/mL (≈ 47.8 µM), 52 µg/mL (≈ 92.1 µM) and 8.3 µg/mL (≈ 14.7 µM), respectively. Further, the stability to heat result in data set [4] is on record as “stable to heat”.

(Values after patent US20120172401A1, “BENZIMIDAZOLE DERIVATIVE AND USE AS ANGIOTENSIN II ANTAGONIST” (Takeda Pharmaceutical Company Limited, priority 2005, published 2012).)
